According to patent publication US20110039721A1, “METHOD FOR PREDICTION ABOUT CARCINOGENICITY OF SUBSTANCE IN RODENT” (Chemicals Evaluation and Research Institute, priority 2007, published 2011):

Key:
liver = details: classification of the substance (Cr+/Cr−); cited from earlier work
[1] = tested on: mRNA expressed from the genes (A) to (D) in rat liver; assay: Behavior of genes (mRNA expression level, oligo-DNA microarray) in rat liver after 28-day oral administration; format: in vivo
Procedure, shortened: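 Liver mRNA levels were compared with matched vehicle groups, with a shift of at least 1.5-fold up or down deemed significant unless its direction disagreed with other carcinogens. Test substances were dosed orally by gavage daily for 28 days to 5-week-old male F344 rats, four per group.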

[2] = classification of the substance (M+/M−); cited from earlier work
rodent = details: classification of the substance (C+/C−); cited from earlier work
[3] = gene group (A), Unigene No. Rn.167075
[4] = gene group (C), Unigene No. Rn.120914

## CC1CCC(C(C)C)C(O)C1 (racemic) [TS034, DL-Menthol]
liver
  Liver carcinogenicity: Cr−
[1]; gene group (A), Unigene No. Rn.144554
  Behavior of gene caused by administration of chemical substance, Gene No. 4846: −
[1]; [3]
  Behavior of gene caused by administration of chemical substance, Gene No. 2026: +
  Behavior of gene caused by administration of chemical substance, Gene No. 4218: −
[1]; gene group (A), Unigene No. Rn.5834
  Behavior of gene caused by administration of chemical substance, Gene No. 6182: −
[1]; gene group (A), Unigene No. Rn.9836
  Behavior of gene caused by administration of chemical substance, Gene No. 5600: −
[1]; gene group (B), Unigene No. Rn.1430
  Behavior of gene caused by administration of chemical substance, Gene No. 1494: +
[1]; gene group (B), Unigene No. Rn.19329
  Behavior of gene caused by administration of chemical substance, Gene No. 2045: +
[1]; gene group (B), Unigene No. Rn.21240
  Behavior of gene caused by administration of chemical substance, Gene No. 2203: +
[1]; gene group (C), Unigene No. Rn.106184
  Behavior of gene caused by administration of chemical substance, Gene No. 533: +
[1]; gene group (C), Unigene No. Rn.108075
  Behavior of gene caused by administration of chemical substance, Gene No. 725: −
[1]; gene group (C), Unigene No. Rn.11766
  Behavior of gene caused by administration of chemical substance, Gene No. 1163: −
[1]; gene group (C), Unigene No. Rn.118529
  Behavior of gene caused by administration of chemical substance, Gene No. 4973: −
[1]; gene group (C), Unigene No. Rn.119024
  Behavior of gene caused by administration of chemical substance, Gene No. 4095: −
[1]; [4]
  Behavior of gene caused by administration of chemical substance, Gene No. 1334: −
  Behavior of gene caused by administration of chemical substance, Gene No. 6620: −
[1]; gene group (C), Unigene No. Rn.123063
  Behavior of gene caused by administration of chemical substance, Gene No. 6303: +
[1]; gene group (C), Unigene No. Rn.143213
  Behavior of gene caused by administration of chemical substance, Gene No. 5878: −
[1]; gene group (C), Unigene No. Rn.144946
  Behavior of gene caused by administration of chemical substance, Gene No. 1131: −
[1]; gene group (C), Unigene No. Rn.14744
  Behavior of gene caused by administration of chemical substance, Gene No. 1562: −
[1]; gene group (C), Unigene No. Rn.1647
  Behavior of gene caused by administration of chemical substance, Gene No. 1741: −
[1]; gene group (C), Unigene No. Rn.164817
  Behavior of gene caused by administration of chemical substance, Gene No. 893: −
[1]; gene group (C), Unigene No. Rn.167685
  Behavior of gene caused by administration of chemical substance, Gene No. 6026: −
[1]; gene group (C), Unigene No. Rn.185941
  Behavior of gene caused by administration of chemical substance, Gene No. 154: +
[1]; gene group (C), Unigene No. Rn.18728
  Behavior of gene caused by administration of chemical substance, Gene No. 1993: −
[1]; gene group (C), Unigene No. Rn.201760
  Behavior of gene caused by administration of chemical substance, Gene No. 813: −
[1]; gene group (C), Unigene No. Rn.23969
  Behavior of gene caused by administration of chemical substance, Gene No. 2494: −
[1]; gene group (C), Unigene No. Rn.24561
  Behavior of gene caused by administration of chemical substance, Gene No. 2546: −
[1]; gene group (C), Unigene No. Rn.43232
  Behavior of gene caused by administration of chemical substance, Gene No. 3776: −
[1]; gene group (C), Unigene No. Rn.4620
  Behavior of gene caused by administration of chemical substance, Gene No. 3929: −
[1]; gene group (C), Unigene No. Rn.9757
  Behavior of gene caused by administration of chemical substance, Gene No. 1119: −
[1]; gene group (C), Unigene No. Rn.9779
  Behavior of gene caused by administration of chemical substance, Gene No. 6742: −
[1]; gene group (C), Unigene No. Rn.9862
  Behavior of gene caused by administration of chemical substance, Gene No. 5634: −
[1]; gene group (D), Unigene No. Rn.9939
  Behavior of gene caused by administration of chemical substance, Gene No. 5726: −
[2]
  Mutagenicity by Ames test: M−
rodent
  Carcinogenicity: C−
